The values below come from patent US8901314B2, “Substituted pyrazoles as N-type calcium channel blockers” (Janssen Pharmaceutica NV, priority 2012, dated 2014).

Assay [1] deals with α1B (Cav2.2), β3 and α2δ subunits of the N-type calcium channel (stable HEK cell line) (Rattus norvegicus, UniProt Q02294). Put plainly: Calcium-dye indicator assay (FDSS, KCl depolarization). The format is cell-based. The note with it: calcium mobilization response to 50 mM KCl; six-point concentration-response. The gist of the method: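 HEK cells stably co-expressing α1B, β3 and α2δ subunits, loaded with calcium dye, exposed to compound for 5 min before 50 mM KCl depolarization, 3 min further read on FDSS. Maximal fluorescence normalized to KCl maximum and buffer minimum; IC50 by sigmoidal nonlinear regression.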
In general terms: Calcium assays in cells follow changes in intracellular calcium, usually with a dye or a luminescent sensor.

Assay [2] deals with Cav2.2 (N-type calcium channel; α1B, α2δ and β3 subunits stably expressed in HEK293 cells). Put plainly: Automated electrophysiology assay (QPatch-HT patch clamp). The class given is cell-based. The settings on record: 0.1 μM; for QPatch % Inhibition, High Freq: high frequency stimulation (15th pulse of 5 Hz train); for QPatch % Inhibition, Low Freq: low frequency stimulation (1st pulse of train). Put shortly:
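Whole-cell automated patch clamp of HEK293 cells stably expressing α1B, α2δ-1 and β3, with 10 mM Ba²⁺/TEA external solution and CsCl internal solution. From −80 mV, trains of 15 pulses to +20 mV at 5 Hz every 30 s. Pulse 1 and pulse 15 currents normalized to the no-compound control period, with CdCl2 used to zero the current.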

For orientation: IC50 means the point on the concentration scale where inhibition reaches its midpoint. `COc1ccccc1-n1nc(C2CC(C)(C)OC(C)(C)C2)cc1-c1cccs1` [Compound 26, 1-(2-Methoxyphenyl)-3-(2,2,6,6-tetramethyltetrahydro-2H-pyran-4-yl)-5-thiophen-2-yl-1H-pyrazole]: in assay [1], the concentration for half-maximal inhibition (IC50) amounted to 12 nM. In addition, in assay [2], the “QPatch % Inhibition, High Freq” value is listed as 42% and the “QPatch % Inhibition, Low Freq” value is 24%.

`COc1cccc(-c2cc(C3CC(C)(C)OC(C)(C)C3)nn2-c2ccccc2OC)c1` [Compound 20, 1-(2-Methoxyphenyl)-5-(3-methoxyphenyl)-3-(2,2,6,6-tetramethyltetrahydro-2H-pyran-4-yl)-1H-pyrazole]: the IC50 in assay [1] is 5.5 nM. In assay [2], the “QPatch % Inhibition, High Freq” value amounted to 45% and the “QPatch % Inhibition, Low Freq” value amounted to 38%.

Take `COc1ccc(-n2nc(C3CCOC(C)(C)C3)cc2-c2ccc(Cl)cc2)c(C)c1` (stereo not drawn) [Compound 75, 5-(4-Chlorophenyl)-3-(2,2-dimethyltetrahydro-2H-pyran-4-yl)-1-(4-methoxy-2-methylphenyl)-1H-pyrazole]: in assay [1], the IC50 is 80 nM. In assay [2], the “QPatch % Inhibition, High Freq” value was 67% and the “QPatch % Inhibition, Low Freq” value is given as 45%.

Take `CNc1ccccc1-n1nc(C2CC(C)(C)OC(C)(C)C2)cc1-c1ccc(Cl)cc1` [Compound 60, 2-[5-(4-Chlorophenyl)-3-(2,2,6,6-tetramethyltetrahydro-2H-pyran-4-yl)-1H-pyrazol-1-yl]-N-methylaniline]: the half-inhibitory concentration (IC50) in assay [1] is 7 nM. Also, in assay [2], the “QPatch % Inhibition, High Freq” value is given as 48% and the “QPatch % Inhibition, Low Freq” value is given as 31%.

As to `COc1ccccc1-n1nc(C2CCOC(C)(C)C2)cc1-c1ccc(Cl)cc1` (stereo not drawn) [Compound 62, 5-(4-Chlorophenyl)-3-(2,2-dimethyltetrahydro-2H-pyran-4-yl)-1-(2-methoxyphenyl)-1H-pyrazole], the IC50 in assay [1] was 2 nM. Also, in assay [2], the “QPatch % Inhibition, High Freq” value came to 67% and the “QPatch % Inhibition, Low Freq” value is 45%.

As to `CCNc1ccccc1-n1nc(C2CC(C)(C)OC(C)(C)C2)cc1-c1ccc(Cl)cc1` [Compound 66, 2-[5-(4-Chlorophenyl)-3-(2,2,6,6-tetramethyltetrahydro-2H-pyran-4-yl)-1H-pyrazol-1-yl]-N-ethylaniline], the IC50 in assay [1] was 9.4 nM. Further, in assay [2], the “QPatch % Inhibition, High Freq” value worked out at 25% and the “QPatch % Inhibition, Low Freq” value came out at 7%.

For the compound `COc1ccc(-c2cc(C3CC(C)(C)OC(C)(C)C3)nn2-c2ccccc2OC)cn1` [Compound 13, 2-Methoxy-5-[1-(2-methoxyphenyl)-3-(2,2,6,6-tetramethyltetrahydro-2H-pyran-4-yl)-1H-pyrazol-5-yl]pyridine], the 50% inhibitory concentration (IC50) in assay [1] worked out at 4.9 nM. For the same compound, in assay [2], the “QPatch % Inhibition, High Freq” value is given as 47.5% and the “QPatch % Inhibition, Low Freq” value is given as 32%.

On to `CC1(C)CC(c2cc(-c3ccc(Cl)cc3)n(-c3ccccc3[N+](=O)[O-])n2)CC(C)(C)O1` [Compound 65, 5-(4-Chlorophenyl)-1-(2-nitrophenyl)-3-(2,2,6,6-tetramethyltetrahydro-2H-pyran-4-yl)-1H-pyrazole], for which the IC50 in assay [1] is 7.8 nM. In addition, in assay [2], the “QPatch % Inhibition, High Freq” value came to 50% and the “QPatch % Inhibition, Low Freq” value is listed as 44%.

Regarding `COc1ccccc1-n1nc(C2CC(C)(C)OC(C)(C)C2)cc1-c1ccccc1N` [Compound 22, 2-[1-(2-Methoxyphenyl)-3-(2,2,6,6-tetramethyltetrahydro-2H-pyran-4-yl)-1H-pyrazol-5-yl]-aniline], the IC50 in assay [1] stood at 6 nM. For the same compound, in assay [2], the “QPatch % Inhibition, High Freq” value turned out to be 0% and the “QPatch % Inhibition, Low Freq” value is 0%.

`COc1ccccc1-n1nc([C@H]2CCO[C@@H](C(C)C)C2)cc1-c1ccc(Cl)cc1` (relative stereo) [Compound 64, 5-(4-Chlorophenyl)-1-(2-methoxyphenyl)-3-[(cis)-2-(1-methylethyl)tetrahydro-2H-pyran-4-yl]-1H-pyrazole]: the IC50 in assay [1] was determined as 7.2 nM. Further, in assay [2], the “QPatch % Inhibition, High Freq” value was found to be 55% and the “QPatch % Inhibition, Low Freq” value is 18%.

Regarding `CCOc1ccc(-c2cc(C3CC(C)(C)OC(C)(C)C3)nn2-c2ccccc2OC)cc1` [Compound 9, 5-(4-Ethoxyphenyl)-1-(2-methoxyphenyl)-3-(2,2,6,6-tetramethyltetrahydro-2H-pyran-4-yl)-1H-pyrazole], the IC50 in assay [1] was 2.3 nM. For the same compound, in assay [2], the “QPatch % Inhibition, High Freq” value is on record as 47.5% and the “QPatch % Inhibition, Low Freq” value is recorded as 34%.

With `COc1ccccc1-n1nc(C2CC(C)(C)OC(C)(C)C2)cc1-c1ccc(C(C)(C)C)cc1` [Compound 15, 5-(4-tert-Butylphenyl)-1-(2-methoxyphenyl)-3-(2,2,6,6-tetramethyltetrahydro-2H-pyran-4-yl)-1H-pyrazole], in assay [1], the IC50 was 4.9 nM. Further, in assay [2], the “QPatch % Inhibition, High Freq” value was 37% and the “QPatch % Inhibition, Low Freq” value is recorded as 20%.

In the case of `COc1ccccc1-n1nc(C2CC(C)(C)OC2(C)C)cc1-c1ccc(Cl)cc1` (stereo not drawn) [Compound 98, 5-(4-Chlorophenyl)-1-(2-methoxyphenyl)-3-(2,2,5,5-tetramethyltetrahydrofuran-3-yl)-1H-pyrazole], the concentration for half-maximal inhibition (IC50) in assay [1] is 5.1 nM. Moreover, in assay [2], the “QPatch % Inhibition, High Freq” value was 61% and the “QPatch % Inhibition, Low Freq” value came to 44.5%.

As to `COc1ccccc1-n1nc(C2CC(C)(C)OC(C)(C)C2)cc1-c1ccc(C)cc1` [Compound 10, 1-(2-Methoxyphenyl)-5-(4-methylphenyl)-3-(2,2,6,6-tetramethyltetrahydro-2H-pyran-4-yl)-1H-pyrazole], the IC50 in assay [1] is 2 nM. Besides, in assay [2], the “QPatch % Inhibition, High Freq” value worked out at 38% and the “QPatch % Inhibition, Low Freq” value worked out at 46%.

As for `COc1ccccc1-n1nc(C2CC(C)(C)OC(C)(C)C2)cc1-c1ccc(N(C)C)nc1` [Compound 31, 5-[1-(2-Methoxyphenyl)-3-(2,2,6,6-tetramethyltetrahydro-2H-pyran-4-yl)-1H-pyrazol-5-yl]-N,N-dimethylpyridin-2-amine], the IC50 in assay [1] came to 3.5 nM. In assay [2], the “QPatch % Inhibition, High Freq” value is recorded as 1% and the “QPatch % Inhibition, Low Freq” value is listed as 4%.

For the compound `COc1ccccc1-n1nc(C2CC(C)(C)OC(C)(C)C2)cc1C1=CCC(C)(C)CC1` [Compound 8, 5-(4,4-Dimethylcyclohex-1-en-1-yl)-1-(2-methoxyphenyl)-3-(2,2,6,6-tetramethyltetrahydro-2H-pyran-4-yl)-1H-pyrazole], the IC50 in assay [1] was determined as 1.6 nM. Besides, in assay [2], the “QPatch % Inhibition, High Freq” value turned out to be 40% and the “QPatch % Inhibition, Low Freq” value turned out to be 37%.

With `COc1ccccc1-n1nc([C@H]2C[C@@H](C)O[C@@H](C)C2)cc1-c1ccc(Cl)cc1` [Compound 63, 5-(4-Chlorophenyl)-3-[(2R,4r,6S)-2,6-dimethyltetrahydro-2H-pyran-4-yl]-1-(2-methoxyphenyl)-1H-pyrazole], the IC50 in assay [1] was found to be 2.5 nM. In assay [2], the “QPatch % Inhibition, High Freq” value came out at 74.5% and the “QPatch % Inhibition, Low Freq” value is listed as 60%.

Consider `CCN(CC)c1ccccc1-n1nc(C2CC(C)(C)OC(C)(C)C2)cc1-c1ccc(Cl)cc1` [Compound 73, 2-[5-(4-Chlorophenyl)-3-(2,2,6,6-tetramethyltetrahydro-2H-pyran-4-yl)-1H-pyrazol-1-yl]-N,N-diethylaniline], for which the IC50 in assay [1] amounted to 50 nM. In assay [2], the “QPatch % Inhibition, High Freq” value is listed as 1% and the “QPatch % Inhibition, Low Freq” value is −18%.

For `COc1ccccc1-n1nc(C2CC(C)(C)OC(C)(C)C2)cc1-c1ccc2c(c1)OCO2` [Compound 4, 5-(1,3-Benzodioxol-5-yl)-1-(2-methoxyphenyl)-3-(2,2,6,6-tetramethyltetrahydro-2H-pyran-4-yl)-1H-pyrazole], in assay [1], the IC50 amounted to 1 nM. In assay [2], the “QPatch % Inhibition, High Freq” value amounted to 39% and the “QPatch % Inhibition, Low Freq” value is listed as 35%.

Regarding `COc1ccc(-c2cc(C3CC(C)(C)OC(C)(C)C3)nn2-c2ccccc2OC)cc1` [Compound 5, 1-(2-Methoxyphenyl)-5-(4-methoxyphenyl)-3-(2,2,6,6-tetramethyltetrahydro-2H-pyran-4-yl)-1H-pyrazole], the half-maximal inhibitory concentration (IC50) in assay [1] was 1.3 nM. In assay [2], the “QPatch % Inhibition, High Freq” value came out at 67% and the “QPatch % Inhibition, Low Freq” value amounted to 59%.

For the compound `COc1ccccc1-n1nc(C2CC(C)(C)OC(C)(C)C2)cc1-c1ccc(SC)cc1` [Compound 6, 1-(2-Methoxyphenyl)-5-[4-(methylsulfanyl)phenyl]-3-(2,2,6,6-tetramethyltetrahydro-2H-pyran-4-yl)-1H-pyrazole], the IC50 in assay [1] turned out to be 1.1 nM. Further, in assay [2], the “QPatch % Inhibition, High Freq” value turned out to be 48% and the “QPatch % Inhibition, Low Freq” value is 48%.

For `COc1ccccc1-n1nc(C2CC(C)(C)OC(C)(C)C2)cc1-c1ccc(C)o1` [Compound 28, 1-(2-Methoxyphenyl)-5-(5-methylfuran-2-yl)-3-(2,2,6,6-tetramethyltetrahydro-2H-pyran-4-yl)-1H-pyrazole], the IC50 in assay [1] came out at 17 nM. Further, in assay [2], the “QPatch % Inhibition, High Freq” value is listed as −5% and the “QPatch % Inhibition, Low Freq” value is reported as −18%.

As for `COc1ccccc1-n1nc(C2CC(C)(C)OC(C)(C)C2)cc1-c1ccccc1` [Compound 16, 1-(2-Methoxyphenyl)-5-phenyl-3-(2,2,6,6-tetramethyltetrahydro-2H-pyran-4-yl)-1H-pyrazole], the IC50 in assay [1] turned out to be 5.1 nM. In assay [2], the “QPatch % Inhibition, High Freq” value worked out at 51% and the “QPatch % Inhibition, Low Freq” value is 37%.

For `COc1ccccc1-n1nc(C2CC(C)(C)OC(C)(C)C2)c(Br)c1-c1ccc(Cl)cc1` [Compound 70, 4-Bromo-5-(4-chlorophenyl)-1-(2-methoxyphenyl)-3-(2,2,6,6-tetramethyltetrahydro-2H-pyran-4-yl)-1H-pyrazole], in assay [1], the IC50 worked out at 24 nM. In addition, in assay [2], the “QPatch % Inhibition, High Freq” value is reported as 25% and the “QPatch % Inhibition, Low Freq” value amounted to 24%.
